According to PubChem BioAssay (NCI):
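96-well plates; 48 h exposure; 5 concentrations. Endpoints by linear interpolation between flanking doses. Not reached: highest tested concentration assigned. TGI: concentration producing complete growth inhibition.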

Experiments:
Test in all cases: inhibition of tumour cell growth, NCI panel, 48 h
786-0 renal = system: 786-0 renal
A498 renal = system: A498 renal
A549 NSCLC = system: A549 NSCLC
ACHN renal = system: ACHN renal
BT-549 breast = system: BT-549 breast
CAKI-1 renal = system: CAKI-1 renal
CCRF-CEM leukemia = system: CCRF-CEM leukemia
COLO 205 colon = system: COLO 205 colon
DU-145 prostate = system: DU-145 prostate
EKVX NSCLC = system: EKVX NSCLC
HCC-2998 colon = system: HCC-2998 colon
HCT-116 colon = system: HCT-116 colon
HCT-15 colon = system: HCT-15 colon
HL-60(TB) leukemia = system: HL-60(TB) leukemia
HOP-62 NSCLC = system: HOP-62 NSCLC
HOP-92 NSCLC = system: HOP-92 NSCLC
HS 578T breast = system: HS 578T breast
HT29 colon = system: HT29 colon
IGROV1 ovarian = system: IGROV1 ovarian
K-562 leukemia = system: K-562 leukemia
KM12 colon = system: KM12 colon
LOX IMVI melanoma = system: LOX IMVI melanoma
M14 melanoma = system: M14 melanoma
MALME-3M melanoma = system: MALME-3M melanoma
MCF7 breast = system: MCF7 breast
MDA-MB-231 breast = system: MDA-MB-231 breast
MDA-MB-435 = system: MDA-MB-435
MDA-N = system: MDA-N
MOLT-4 leukemia = system: MOLT-4 leukemia
NCI-H226 lung = system: NCI-H226 lung
NCI-H23 lung = system: NCI-H23 lung
NCI-H460 lung = system: NCI-H460 lung
NCI-H522 lung = system: NCI-H522 lung
NCI/ADR-RES ovarian = system: NCI/ADR-RES ovarian
OVCAR-3 ovarian = system: OVCAR-3 ovarian
OVCAR-4 ovarian = system: OVCAR-4 ovarian
OVCAR-8 ovarian = system: OVCAR-8 ovarian
PC-3 prostate = system: PC-3 prostate
RXF 393 renal = system: RXF 393 renal
SF-268 CNS = system: SF-268 CNS
SF-295 CNS = system: SF-295 CNS
SF-539 CNS = system: SF-539 CNS
SK-MEL-2 melanoma = system: SK-MEL-2 melanoma
SK-MEL-5 melanoma = system: SK-MEL-5 melanoma
SK-OV-3 ovarian = system: SK-OV-3 ovarian
SN12C renal = system: SN12C renal
SNB-19 CNS = system: SNB-19 CNS
SNB-75 CNS = system: SNB-75 CNS
SR leukemia = system: SR leukemia
SW-620 colon = system: SW-620 colon
T-47D breast = system: T-47D breast
TK-10 renal = system: TK-10 renal
U251 CNS = system: U251 CNS
UACC-257 melanoma = system: UACC-257 melanoma
UACC-62 melanoma = system: UACC-62 melanoma
UO-31 renal = system: UO-31 renal
OVCAR-5 ovarian = system: OVCAR-5 ovarian
RPMI-8226 leukemia = system: RPMI-8226 leukemia
SK-MEL-28 melanoma = system: SK-MEL-28 melanoma

Measured: TGI

COc1cc2ccc1OCc1cccc(n1)COc1ccc(cc1OC)C=Nc1ccc(cc1)-c1ccc(cc1)N=C2
> 100 µM: 786-0 renal | A498 renal | A549 NSCLC | ACHN renal | BT-549 breast | CAKI-1 renal | CCRF-CEM leukemia | COLO 205 colon | DU-145 prostate | EKVX NSCLC | HCC-2998 colon | HCT-116 colon | HCT-15 colon | HL-60(TB) leukemia | HOP-62 NSCLC | HOP-92 NSCLC | HS 578T breast | HT29 colon | IGROV1 ovarian | K-562 leukemia | KM12 colon | LOX IMVI melanoma | M14 melanoma | MALME-3M melanoma | MCF7 breast | MDA-MB-231 breast | MDA-MB-435 | MDA-N | MOLT-4 leukemia | NCI-H226 lung | NCI-H23 lung | NCI-H460 lung | NCI-H522 lung | NCI/ADR-RES ovarian | OVCAR-3 ovarian | OVCAR-4 ovarian | OVCAR-8 ovarian | PC-3 prostate | RXF 393 renal | SF-268 CNS | SF-295 CNS | SF-539 CNS | SK-MEL-2 melanoma | SK-MEL-5 melanoma | SK-OV-3 ovarian | SN12C renal | SNB-19 CNS | SNB-75 CNS | SR leukemia | SW-620 colon | T-47D breast | TK-10 renal | U251 CNS | UACC-257 melanoma | UACC-62 melanoma | UO-31 renal

CCc1c(O)c2c(c(O)c1C(C)=O)C(=O)c1c(cc(O)c(C(=O)O)c1C(=O)O)C2=O
> 100 µM: 786-0 renal | A498 renal | A549 NSCLC | ACHN renal | BT-549 breast | CAKI-1 renal | CCRF-CEM leukemia | COLO 205 colon | DU-145 prostate | EKVX NSCLC | HCC-2998 colon | HCT-116 colon | HCT-15 colon | HOP-62 NSCLC | HOP-92 NSCLC | HS 578T breast | HT29 colon | IGROV1 ovarian | K-562 leukemia | KM12 colon | LOX IMVI melanoma | M14 melanoma | MALME-3M melanoma | MCF7 breast | MDA-MB-231 breast | MDA-MB-435 | MDA-N | MOLT-4 leukemia | NCI-H226 lung | NCI-H23 lung | NCI-H460 lung | NCI-H522 lung | NCI/ADR-RES ovarian | OVCAR-3 ovarian | OVCAR-4 ovarian | OVCAR-5 ovarian | OVCAR-8 ovarian | PC-3 prostate | RPMI-8226 leukemia | RXF 393 renal | SF-268 CNS | SF-295 CNS | SF-539 CNS | SK-MEL-2 melanoma | SK-MEL-28 melanoma | SK-MEL-5 melanoma | SK-OV-3 ovarian | SN12C renal | SNB-19 CNS | SNB-75 CNS | SR leukemia | SW-620 colon | T-47D breast | TK-10 renal | U251 CNS | UACC-257 melanoma | UACC-62 melanoma | UO-31 renal

CNC(=O)CNC(=O)C(Cc1ccc(NC(=O)CCCCC(C)=O)cc1)NC(=O)C(CCC(=O)OCc1ccccc1)NC(=O)OC(C)(C)C (stereo not given)
> 100 µM: 786-0 renal | A498 renal | A549 NSCLC | ACHN renal | BT-549 breast | CAKI-1 renal | COLO 205 colon | DU-145 prostate | EKVX NSCLC | HCC-2998 colon | HCT-116 colon | HCT-15 colon | HL-60(TB) leukemia | HOP-62 NSCLC | HOP-92 NSCLC | HS 578T breast | HT29 colon | IGROV1 ovarian | K-562 leukemia | KM12 colon | LOX IMVI melanoma | M14 melanoma | MALME-3M melanoma | MCF7 breast | MDA-MB-231 breast | MDA-MB-435 | MDA-N | MOLT-4 leukemia | NCI-H226 lung | NCI-H23 lung | NCI-H460 lung | NCI-H522 lung | NCI/ADR-RES ovarian | OVCAR-3 ovarian | OVCAR-4 ovarian | OVCAR-5 ovarian | OVCAR-8 ovarian | PC-3 prostate | RPMI-8226 leukemia | RXF 393 renal | SF-268 CNS | SF-295 CNS | SF-539 CNS | SK-MEL-28 melanoma | SK-MEL-5 melanoma | SK-OV-3 ovarian | SN12C renal | SNB-19 CNS | SNB-75 CNS | SR leukemia | SW-620 colon | T-47D breast | TK-10 renal | U251 CNS | UACC-62 melanoma | UO-31 renal
